Measured values: patent US20120083464A1, “NEUROPROTECTIVE PROPERTIES OF 5'-METHYLTHIOADENOSINE” (priority 2009, published 2012)
Entries after “also recorded” stand apart in the source; their conditions may differ.

Assays:
[1] = test system: cerebellar organotypic cultures; test: LPS neuroinflammation model in cerebellar organotypic cultures: demyelination and axonal damage (immunofluorescence, Western blot); format: cell-based, C57/B16 wild type mice; details: 192 μM MTA pre-treatment for half hour, 15 μg/ml LPS, 24 hrs
Description: Organotypic cultures model of neuroinflammation is based on previous observations in which systemic injections of lipopolysaccharide (LPS) in mice spinal cord induce inflammation, demyelinization and Wallerian degeneration. In mice cerebellar organotypic cultures, LPS induces microglia activation with consequent demyelination and axonal damage. In particular, LPS induces TNF-alpha, IL1-beta release, axonal swelling and end bulbs due to axonal transport block, and a decrease of axonal density. Organotypic cultures represent the best model to represent in vivo mechanisms since they maintain cell-cell interaction and organotypic structure of brain region studied. In this way, this in vitro neuroinflammation model reproduces the microglia activation, demyelinization and axonal damage phenomena observed in MS.
Cerebellar organotypic cultures which were pre-treated for half hour with 192 μM of MTA and 15 μg/ml of LPS have been used to generate neuroinflammation model.
2. Data analysis: Western blot, immunofluorescence and ELISA analysis were performed using conventional techniques.

[2] = test system: pure rat cortical neuronal culture; test: NMDA-mediated toxicity (LDH release) in pure neuronal culture; format: cell-based, Sprague-Dawley rat; details: NMDA 300 μM, MTA 100 to 500 μM
Procedure: Primary cultures of brain cortical neurons were essentially prepared as described previously (Bruno et al., 2001, Eur. J. Neurosci., 13:1469-1478). The fronto-lateral cortical lobes were dissected out of Sprague-Dawley embryonic day 17 foetuses and were mechanically dissociated in Hanks' balanced solution. The cortical lobes were triturated by aspirating 7-10 times using a Pasteur pipette with a flame-narrowed tip. After centrifugation at 800 g for 5 min, cells were resuspended in serum-free Neurobasal medium (GIBCO) supplemented with B27 (GIBCO) containing 2 mM L-glutamine, penicillin (20 units/ml) and streptomycin (5 μg/ml) and plated on poly-L-lysine-coated 24-well culture plates or on poly-L-lysine-coated 6-well culture plates. […]
For viability experiments, cortical neurons or mixed cortical neurons and glia, seeded onto 24-well plates at 15×10^4 cells/well and cultured for 7 DIV, were treated with vehicle (DMSO 1‰), NMDA (300 μM), NMDA (300 μM)+MTA (at different concentrations) or NMDA (300 μM)+MK-801 (10 μM) for 6 h and 24 h. […] Lactate dehydrogenase (LDH) activity was measured as an index of cellular death and mortality was expressed as percentage of LDH released to culture media. LDH was measured spectrophotometrically at 490 nm on a 96-well plate reader by using the Cytotox 96 Kit according to the manufacturer instructions (Promega). […]

isolated optic nerve = test: Simulated ischemia (OGD) in isolated optic nerves, LDH release; parameters: species or system Sprague Dawley rats; details: 1 h ischemia with iodoacetate + 2 h reperfusion; MTA 100-300 μM
Procedure: Ischemic damage was induced by substituting […] and adding 1 mM of the glyocolytic blocker iodoacetate (1 mM) for 1 h followed by 2 h of reperfusion in […] aCSF. Optic nerves during ischemia and reperfusion were incubated with vehicle, for controls, and with MTA or glutamate receptor antagonists, and subsequently processed for LDH release assay. The results are the mean±SEM of at least three different experiments performed in duplicate.
Cell viability in oligodendrocyte cultures was assayed after 24 h of exposure to MTA (1 μM to 3 mM) calcein-AM assays respectively followed by fluorimetry measurements (Synergy-HT). Oligodendrocyte protection from excitotoxicity and optic nerve damage after ischemia (1 hour+2 hours reperfusion) were examined using lactate dehydrogenase release assays in the presence or absence of MTA (100-300 μM for 3 hours).

CA1 hippocampal neurons = test: Global ischemia (four-vessel occlusion, 10 min), Fluoro jade staining; format: in vivo, Wistar rats; details: P<0.01
Procedure: Before surgical procedures, animals were fasted overnight. The rats were subjected to middle cerebral artery occlusion (MCAO) for 90 min using the intraluminal filament model as described previously (Rickhag et al, 2006; J Neurochem 96:14-29). Blood flow was monitored transcraneally with a doppler laser (Perimed). All physiologic parameters of animals included in the study were within normal ranges and included animals showing typical ischemia-induced behavioral deficits, rotational asymmetry, and dysfunctional limb placement. Rectal and body temperature was maintained at 37° C. during surgery and ischemia with a heating pad. Transient forebrain ischemia was induced by occlusion of the vertebral and common carotid arteries for 10 min according to the method described by Pulsinelli and Brierley (1979; Stroke 10, 267-272.). Criteria for forebrain ischemia were bilateral loss of the righting reflex, paw extension and mydriasis. […]
The animals were treated with MTA (30 or 100 mg/kg i.p.), twice daily reconstituted in Tris 300 mM, or placebo (Tris 300 mM) starting at 30 min of the onset of ischemia. […]

For `CSC[C@H]1O[C@@H](n2cnc3c(N)ncnc32)[C@H](O)[C@@H]1O` [MTA, 5′-methylthioadenosine], the “demyelination and axonal damage (MBP/NFL immunofluorescence, CNPase/APP Western blot)” value [1] was “prevents; also recorded: absents”, the “effect on NMDA-mediated toxicity (LDH release)” value [2] was “no neuroprotective effect; also recorded: Lack of effect” and the “OGD/ischemia-induced damage in isolated optic nerve (LDH release)” value (isolated optic nerve) was “similarly protective”. The “CA1 hippocampal neuron cell death (Fluoro jade fluorescence)” value (CA1 hippocampal neurons; 10 min global ischemia, MTA i.p. twice daily from 30 min post-ischemia, 7 days) was “protects” and the “lower levels of dying cells in the CA1 region versus vehicle (Fluoro jade)” value (CA1 hippocampal neurons; MTA 30 mg/kg i.p. twice daily, 7 days of reperfusion) was “about 50%”.
